The values below are quoted from earlier work in patent US6458974B1, “Synthesis of β-lapachone and its intermediates” (Cyclis Pharmaceuticals, Inc., priority 2001, dated 2002).

By IC50 is commonly meant the concentration that inhibits the measured activity by half.

The test system of data set [1] is human cancer cell lines. The conditions noted are these: single agent, concentrations typically in this range, read-out: antineoplastic activity (IC50).
Data set [2] relates to normal fresh or proliferating human PBMC.

As for `CC1(C)CCC2=C(O1)c1ccccc1C(=O)C2=O` [β-lapachone, 3,4-dihydro-2,2-dimethyl-2H-naphtho[1,2-b]pyran-5,6-dione], the IC50 in data set [1] is 1 to 10 µM. In addition, in data set [2], the cytotoxic effects entry is recorded as “No cytotoxic effects”.
